From patent US5183828A, “Polyhydroxybenzoic acid derivatives” (priority 1990, dated 1993)
Several values for one entry are separate records, joined by “and”; a condition that tells them apart may be missing. Equal values may be shown once. Where a name gives a salt, the structure may show the parent alone.

How the values were obtained:
L1210 leukemia = test: antitumor activity in L1210 leukemia (percent increase in survival time), Table 2; type: in vivo, mice; conditions: Mus musculus, L1210, 192 h, 8 days; for ILS at 300 mg/kg: 300 mg/kg ip daily
Method: Testing of the compounds of this invention against L-1210 lymphoid leukemia were carried out as follows: L-1210 leukemia was maintained by weekly passage of 10^5 L-1210 cells intraperitoneally into DBA/2 mice. Diluted ascitic fluid, 0.1 ml. (10^5 cells), was administered ip to female B6D2 F1 mice weighing about 20 g. Drugs were administered ip 24 hours after tumor transplantation and injections were continued daily for a total of eight days. A group of control mice receiving only the injection medium were maintained. Table 2 which follows gives the antitumor activity against L-1210 leukemia for certain compounds of this invention. In the table, column 1 gives the name of the compound, column 2 the dose in mg./kg., and column 3 the percent increase in survival time over controls at each dose level.

Δ^5-lipoxygenase = target: T1, Δ^5-lipoxygenase (Rattus norvegicus, UniProt P12527); test: ability to inhibit Δ^5-lipoxygenase; type: biochemical; conditions: RBL-1 cell supernatant
T1 construct: supernatant fraction of lysed rat basophilic leukemia (RBL-1) cells; endogenous in cells; host or cells: RBL-1 cells, 49,000 g supernatant of homogenate
T1 sequence (P12527 1-673): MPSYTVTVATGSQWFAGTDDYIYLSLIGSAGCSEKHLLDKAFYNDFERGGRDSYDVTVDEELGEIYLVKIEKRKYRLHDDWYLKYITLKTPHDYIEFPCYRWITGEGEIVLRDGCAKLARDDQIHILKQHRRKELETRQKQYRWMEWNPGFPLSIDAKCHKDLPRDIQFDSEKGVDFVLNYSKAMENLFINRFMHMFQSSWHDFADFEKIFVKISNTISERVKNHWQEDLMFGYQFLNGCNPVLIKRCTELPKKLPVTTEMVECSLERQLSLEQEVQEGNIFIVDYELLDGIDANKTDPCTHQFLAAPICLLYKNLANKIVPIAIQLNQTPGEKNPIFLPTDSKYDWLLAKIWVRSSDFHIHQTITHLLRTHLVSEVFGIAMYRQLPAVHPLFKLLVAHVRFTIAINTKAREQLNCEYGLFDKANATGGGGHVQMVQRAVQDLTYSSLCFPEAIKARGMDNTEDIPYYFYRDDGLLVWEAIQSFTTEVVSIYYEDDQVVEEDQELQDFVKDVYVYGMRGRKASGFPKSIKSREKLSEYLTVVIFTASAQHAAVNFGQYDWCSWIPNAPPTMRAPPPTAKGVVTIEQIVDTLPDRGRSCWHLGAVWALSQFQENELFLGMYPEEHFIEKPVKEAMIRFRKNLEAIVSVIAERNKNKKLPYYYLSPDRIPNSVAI
Method: This enzyme is believed to initiate the synthesis of slow reacting substance of […]), an important mediator in the pathogenesis of asthma. Thus, a drug capable of inhibiting this enzyme would also help to prevent asthmatic attacks. In this determination, Δ^5 -lipoxygenase was derived from the supernatant fraction of lysed rat basophilic leukemia (RBL-1) cells. […] The Δ^5 -lipoxygenase was derived from RBL-1 cells which were lysed by homogenization in ice-cold buffer (50 mM Tris-HCl buffer, pH 7.2, containing 1 mM EDTA and 14 uM indomethacin). The homogenate was centrifuged at 4 ° C. at 49,000 g for 20 min and the resulting supernatant fraction was used as the source of Δ^5 -lipoxygenase. The enzyme was assayed at 37° using 6.7 uM (0.39 uCi/ml) [1-14C]arachidonic acid as the substrate in 50 mM Tris-HCl buffer, pH 7.2, containing 1 mM gluthatione, 3 mM CaCl2, 14 uM indomethacin, and 0.25 to 0.50 mM EDTA. […] The effect of compounds on Δ^5 -lipoxygenase activity was determined by preincubating the enzyme for 10 min at 30° in the presence or absence of various concentrations of the drug prior to addition of substrate.

B16 Melanoma = test: activity vs B16 melanoma (T/C % survival), Table 4; type: in vivo, mice; conditions: nine days, >120 significant
Method: The drugs were also used to treat melanotic melanoma B16. The protocol for testing against this tumor is as follows:
0.5 ml. of a tumor homogenate prepared by homogenizing 1 g. of tumor with 10 ml. of cold balanced solution is implanted ip in groups of 10 B6 C3 F1 mice. The drug is administered daily for a total of nine days starting one day after tumor inoculation. The results are expressed as mean survival time of treated group versus control group (T/C) as a percent.

[1] = free radical scavenging ability (destruction of diphenylpicrylhydrazyl), Table 7; conditions: 100 μM diphenylpicrylhydrazyl in acetone; test compound 25 μM, 2.5 μM (footnote)
Source text: It is believed that the antineoplastic activity of the compounds of this invention is due in parts to their ability to scavenge free-radicals. Additionally, the compounds of this invention are cancer protective agents and this utility also may be a manifestation of their free-radical scavenging capability. Free-radical scavenging agents may also be useful in detoxifying mammals in whom an excess of free radicals is a cause and/or result of the toxicity. Other possible uses of free radical scavengers are to inhibit protaglandin transformation, leucotriene interconversion and lipogenesis, to act as inflammatory modulators and as food additive or preservatives to prevent lipid oxidation. The free radical scavenging ability of the compounds of the invention was determined by measuring the destruction of the stable free radical, diphenylpicrylhydrazyl, in the presence of the test compound in a manner similar to that reported by […] and Herzmann, Naturwiss, 47, 133-134 (1960). […] The test compound was added at a final concentration of 25 μM and the rate of reduction of absorpotion at […] was observed. Table 7 below gives the free radical scavenging abilities of the compounds of this invention expresses as the initial rate of decrease in optical density units/min.

NC(=NO)c1ccc(O)c(O)c1 [3,4-dihydroxybenzamidoxime.HCl, 3,4-dihydroxybenzamidoximehydrochloride]
ILS at 157 mg/kg (L1210 leukemia; 157 mg/kg ip daily): 132%
ILS at 200 mg/kg (L1210 leukemia; 200 mg/kg ip daily): 43.5%
ILS at 238 mg/kg (L1210 leukemia; 238 mg/kg ip daily): 46.9%
ILS at 300 mg/kg (L1210 leukemia): 73.9%
inhibition at 1 µM (Δ^5-lipoxygenase; 1 uM): 25%
inhibition at 10 µM (Δ^5-lipoxygenase): 94%
T/C % (mean survival time) (B16 Melanoma; 25 mg/kg daily): 119%
T/C % (mean survival time) (B16 Melanoma; 50 mg/kg daily): 127%
T/C % (mean survival time) (B16 Melanoma; 100 mg/kg daily): 129%
T/C % (mean survival time) (B16 Melanoma; 200 mg/kg daily): 134%
T/C % (mean survival time) (B16 Melanoma; 400 mg/kg daily): 117%
T/C % (mean survival time) (B16 Melanoma; 800 mg/kg daily): toxic
initial rate of decrease in optical density (518 nm) [1]: 0.718 units/min.

CCOC(=N)c1cc(O)c(O)c(O)c1 [ethyl 3,4,5-trihydroxybenzamidate-HCl, Ethyl 3,4,5-trihydroxybenzamidate hydrochloride]
ILS at 300 mg/kg (L1210 leukemia): 42.3%
ILS at 450 mg/kg (L1210 leukemia; 450 mg/kg ip daily): 58.4%
inhibition at 10 µM (Δ^5-lipoxygenase): 86%
T/C % (mean survival time) (B16 Melanoma; 25 mg/kg daily): 105%
T/C % (mean survival time) (B16 Melanoma; 50 mg/kg daily, listed as ethyl gallamidate.HCl, hydrochloride): 109% and 104%
T/C % (mean survival time) (B16 Melanoma; 100 mg/kg daily, listed as ethyl gallamidate.HCl, hydrochloride): 121% and 109% and 107%
T/C % (mean survival time) (B16 Melanoma; 200 mg/kg daily, listed as ethyl gallamidate.HCl, hydrochloride): 121% and 125% and 122%
T/C % (mean survival time) (B16 Melanoma; 400 mg/kg daily, listed as ethyl gallamidate.HCl, hydrochloride): 124% and 156% and 137%
initial rate of decrease in optical density (518 nm) [1]: 3.730 units/min.
